From publication PMC11758220, “Identification of a Privileged Scaffold for Inhibition of Sterol Transport Proteins through the Synthesis and Ring Distortion of Diverse, Pseudo-Natural Products” (ACS Central Science, 2025) come the findings set out here.

This assay deals with T1, Aster-B (Homo sapiens, UniProt Q3KR37).
T1 construct: -B(364-552); GST (PreScission-cleavable) (N, cleaved yes); made in house; host or cells: E. coli OverExpress C41
T1 sequence (Q3KR37 364-552): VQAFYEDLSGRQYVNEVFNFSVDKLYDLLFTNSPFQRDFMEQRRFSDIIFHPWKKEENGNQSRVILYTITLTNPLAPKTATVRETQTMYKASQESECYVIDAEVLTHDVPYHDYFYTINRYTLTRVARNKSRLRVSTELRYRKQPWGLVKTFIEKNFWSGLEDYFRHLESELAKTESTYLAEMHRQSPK
Kind of assay: Fluorescence polarisation (FP) competition with NBD-cholesterol, Aster-B. Type of assay: binding. Conditions: for IC50: mean of three experiments run in technical duplicates; for inhibition at 10 µM / Aster-B (FP) inhibition: single dose, Dose = 10 µM. From the text: Protein expression constructs
Human ASTER domains of Aster-A(359-547), -B(364-552) and -C(318-504) were subcloned into a pGEX-6p-2rbs vector, thus introducing the cloning artifact ‘GPLGS’.3 The pGEX-6P-1-GST-OSBP(377- […]
a gift from James H. Hurley (University of California).4 The pHIS_2His6_Thrombin_STARD4(2-205;C75S) plasmid was a gift from Young Jun Im (Chonnam National University).5 STARD5A was a gift from Nicola Burgess-Brown (Addgene plasmid #42392; http://n2t.net/addgene:42392; […]
Protein expression and purification […]
vectors including an N-terminal PreScission-cleavable glutathione S-transferase (GST)-tag were expressed in Escherichia coli (E. coli) OverExpress C41 in Terrific Broth (TB) medium for 16 h at 18 °C after the induction with 0.1 mM isopropyl β-D-1-thiogalactopyranoside (IPTG). Cells were harvested at 3500 × g for 15 minutes and lysed by sonication in buffer containing 50 mM HEPES pH 7.5, 300 mM NaCl, 10 %v/v glycerol, 5 mM dithiothreitol (DTT), 0.1 %v/v Triton X-100 and protease inhibitor mix HP plus (Serva). The lysate was purified by affinity chromatography on a GSTrap FF column (Cytiva) using an ÄKTA Start (Cytiva) in buffer containing 50 mM HEPES pH 7.5, 300 mM NaCl, 10 %v/v glycerol, 5 mM DTT and 0.01 %v/v Triton X-100. The GST-tag was cleaved overnight on the column at 4 °C. The Aster sterol binding domains were further purified by size-exclusion chromatography (SEC) on a HiLoad 16/600 Superdex 75 pg (Cytiva) in buffer containing 20 mM HEPES pH 7.5, 300 mM NaCl, 10 %v/v […]
STARD5(6-213) harboring an N-terminal His6-Tag were expressed in E. coli BL21(DE3) in Luria-Bertani Broth (LB) medium for approximately 16 h at 18 °C after induction with 0.15 mM IPTG. Cells were harvested at 3500 × g for 15 minutes and lysed by sonication in buffer containing 50 mM HEPES pH 7.5, 150 mM NaCl, 5 %v/v glycerol, 5 mM DTT, 0.1 %v/v Triton X -100 and ethylenediaminetetraacetic acid (EDTA)-free protease inhibitor cocktail (Sigma-Aldrich). The cleared lysate was purified by affinity chromatography on a Ni-NTA Superflow Cartridge (Qiagen) using an ÄKTA Start (Cytiva) in buffer containing 50 mM HEPES pH 7.5, 150 mM NaCl, 5 %v/v glycerol, 5 mM DTT. START domains were eluted by using elution buffer containing 50 mM HEPES pH 7.5, 150 mM NaCl, 5 %v/v glycerol, 5 mM DTT and 500 mM imidazole. Proteins were further purified by SEC on a HiLoad 16/600 Superdex 75 pg (Cytiva) in buffer containing 20 mM HEPES pH 7.5, 150 mM NaCl, 5 %v/v glycerol and 2 mM DTT.
The ORP domain of human OSBP(377-807) in the pGEX-6p-1 vector with an N-terminal PreScission-cleavable GST-tag was expressed in E. coli OverExpress C41 in LB medium for 16 h at 18 °C after induction with 0.1 mM IPTG. Cells were harvested at 3500 × g for 15 minutes and lysed by sonication in buffer containing 20 mM HEPES pH 7.5, 300 mM NaCl, 10 %v/v glycerol, 5 mM DTT, 0.1 %v/v Triton X-100 and EDTA-free protease inhibitor cocktail (Sigma-Aldrich). The cleared lysate was purified by affinity chromatography on a GSTrap HF column (Cytiva) using an ÄKTA Start (Cytiva) in buffer containing 20 mM HEPES pH 7.5, 300 mM NaCl, 10 %v/v glycerol, 5 mM DTT. OSBP(377 -807) was eluted by using elution buffer containing 20 mM HEPES pH 7.5, 300 mM NaCl, 10 %v/v glycerol, 5 mM DTT and 10 mM reduced glutathione. Proteins were further purified by SEC on a HiLoad 16/600 Superdex 75 pg (Cytiva) using an ÄKTA Explorer (Cytiva) in buffer containing 20 mM HEPES pH 7.5, 150 mM NaCl, 10 %v/v glycerol and 2 mM DTT.
The ORP domains of human ORP1(534-950) in pET24b(+) and ORP2(49-480) in the pET24b(+) vector including an N-terminal His6-Tag were expressed in E. coli BL21(DE3) in TB medium for approximately 16 h at 18 °C after induction with 0.1 mM IPTG. Cells were collected at 3500 × g for 15 minutes and lysed by sonification in buffer containing 10 mM Tris-HCl pH 8, 300 mM NaCl, 5 % glycerol, 2 mM DTT, 0.1 % Triton X-100 and EDTA-free protease inhibitor cocktail (Sigma-Aldrich). The cleared […]
A general note: In fluorescence polarisation assays a small probe gives low polarisation when free and higher when bound to something large.

A value given as a limit tells only on which side of the number the result lay.

As a reminder, the IC50 is the concentration that inhibits the measured activity by half. A higher IC50 goes with weaker potency. For orientation: inhibition means the relative decrease from the control value, in per cent. As to `C[C@]12CC[C@@H]3C[C@H]1CC[C@@]21C(=Nc2ccc(Br)cc21)O3` (racemic) [Compound 15b], the IC50 is over 80 µM and the inhibition at 10 µM worked out at 19%.

For `CC12CCC3CC1CCC21C(=Nc2ccc(N4CCOCC4)cc21)O3` (racemic) [Compound 19a], the concentration for half-maximal inhibition (IC50) is over 80 µM and the inhibition at 10 µM stood at 14%.

For the molecule `CC12CCC3CC1CCC21C(=Nc2ccc(Br)cc21)O3` (single isomer, unassigned; (+)) [(+)-15b], the IC50 is over 80 µM and the inhibition at 10 µM amounted to 3.33%.

In the case of `CC12CCC3CC1CCC21C(=Nc2ccc(N4CCOCC4)cc21)O3` (single isomer, unassigned; (+)) [(+)-19a], the concentration for half-maximal inhibition (IC50) was over 80 µM and the inhibition at 10 µM turned out to be 7.5%.

Regarding `CC12CCC3CC1CCC21C(=Nc2ccc(N4CCOCC4)cc21)O3` (single isomer, unassigned; (-)) [(−)-19a], the IC50 is over 80 µM and the “Aster-B (FP) inhibition” value was determined as 7%.

Regarding `C[C@@]12CC[C@H]3C[C@@H]1CC[C@]21C(=Nc2ccc(Br)cc21)O3` [(−)-15b], the IC50 was over 80 µM and the inhibition at 10 µM came to 14%.

In the case of `CC(C)Oc1ccc(C(=O)Nc2nc3c(s2)CN(C(=O)OC(C)(C)C)CC3)cc1` [Autogramin-2, reference compound], the IC50 is over 80 µM and the “Aster-B (FP) inhibition” value is on record as 5%.

Regarding `Cc1c2c(nc3ccccc13)[C@@]1(C)CC[C@@H](O)C[C@H]1CC2` [Compound 2a], the inhibition at 10 µM was 14%.

Turning to `C[C@]12CC[C@@H](O)C[C@H]1CCc1c2nc2ccccc2c1-c1ccccc1` [Compound 2b], the “Aster-B (FP) inhibition” value is recorded as 2.5%.

Consider `Cc1c2c(nc3cc(Br)ccc13)[C@@]1(C)CC[C@@H](O)C[C@H]1CC2` [Compound 2c], for which the “Aster-B (FP) inhibition” value was 9%.

For `C[C@]12CC[C@@H](O)C[C@H]1CCc1c2nc2ccccc2c1-c1ccc(F)cc1` [Compound 2d], the inhibition at 10 µM amounted to 7.5%.

For the molecule `C[C@]12CC[C@@H](O)C[C@H]1CCc1c2nc2ccc(Cl)cc2c1-c1ccccc1` [Compound 2e], the “Aster-B (FP) inhibition” value turned out to be 2.5%.

Consider `C[C@]12CC[C@@H](O)C[C@H]1CCc1c2[nH]c2ncccc12` [Compound 3], for which the inhibition at 10 µM turned out to be 8%.

`C[C@]12CC[C@@H](O)C[C@H]1CCC[C@]21Nc2ccccc2-n2cccc21` [Compound 4]: the “Aster-B (FP) inhibition” value was -1.67% and the inhibition at 10 µM was -0.833%.

`C[C@]12CC[C@@H](O)C[C@H]1CCC[C@]21NC(=O)c2ccccc2N1` [Compound 5a]: the “Aster-B (FP) inhibition” value is reported as 7% and the inhibition at 10 µM was 10%.

For `C[C@]12CC[C@@H](O)C[C@H]1CCC[C@]21NC(=O)c2ccc(F)cc2N1` [Compound 5b], the “Aster-B (FP) inhibition” value stood at 8% and the inhibition at 10 µM worked out at 15%.

Take `COc1ccc2c(c1)C(=O)N[C@]1(CCC[C@@H]3C[C@H](O)CC[C@@]31C)N2` [Compound 5c]: the “Aster-B (FP) inhibition” value stood at 10% and the inhibition at 10 µM worked out at 12%.

Turning to `C[C@]12CC[C@@H](O)C[C@H]1CCc1nc3ccccc3nc12` [Compound 7a], the inhibition at 10 µM amounted to 23%.

As for `Cc1cc2nc3c(nc2cc1C)[C@@]1(C)CC[C@@H](O)C[C@H]1CC3` [Compound 7b], the inhibition at 10 µM was 7.5%.

In the case of `C[C@]12CC[C@@H](O)C[C@H]1CCc1nc3cc(F)c(F)cc3nc12` [Compound 7c], the “Aster-B (FP) inhibition” value amounted to 4%.

On to `C[C@]12CC[C@@H](O)C[C@H]1CCc1nc3cc(Cl)c(Cl)cc3nc12` [Compound 7d], for which the “Aster-B (FP) inhibition” value is 11%.

`C[C@]12CC[C@@H](O)C[C@H]1CCc1nc3cc(Br)c(Br)cc3nc12` [Compound 7e]: the “Aster-B (FP) inhibition” value is given as 12%.

Take `C[C@]12CC[C@@H](O)C[C@H]1CCc1sc(N)nc12` [Compound 8a]: the inhibition at 10 µM is 3.33%.

As for `Cc1nc2c(s1)CC[C@@H]1C[C@H](O)CC[C@]21C` [Compound 8b], the “Aster-B (FP) inhibition” value worked out at 7.5%.

With `C[C@]12CC[C@@H](O)C[C@H]1CCc1sc(-c3cccnc3)nc12` [Compound 8c], the “Aster-B (FP) inhibition” value is listed as 7%.

`COc1ccc(-c2nc3c(s2)CC[C@@H]2C[C@H](O)CC[C@]32C)cc1` [Compound 8d]: the inhibition at 10 µM was 6%.

In the case of `C[C@]12CC[C@@H](O)C[C@H]1CCc1sc(-c3ccc(F)cc3)nc12` [Compound 8e], the “Aster-B (FP) inhibition” value came to 8%.

As for `C[C@]12CC[C@@H](O)C[C@H]1CCc1[nH]c(-c3ccccc3)nc12` [Compound 9], the inhibition at 10 µM is 9%.

In the case of `C[C@]12CC[C@@H](O)C[C@H]1CCc1c2[nH]c2ccccc12` [Compound 10a], the “Aster-B (FP) inhibition” value stood at 7.5%.

`C[C@]12CC[C@@H](O)C[C@H]1CCc1c2[nH]c2ccc(Br)cc12` [Compound 10b]: the “Aster-B (FP) inhibition” value is -2.5%.

As to `C[C@]12CC[C@@H](O)C[C@H]1CCc1c2[nH]c2ccc(Cl)cc12` [Compound 10c], the “Aster-B (FP) inhibition” value is on record as -5%.

As for `C[C@]12CC[C@@H](O)C[C@H]1CCc1c2[nH]c2ccc(F)cc12` [Compound 10d], the “Aster-B (FP) inhibition” value stood at 0.833%.

Take `Cc1ccc2[nH]c3c(c2c1)CC[C@@H]1C[C@H](O)CC[C@]31C` [Compound 10e]: the inhibition at 10 µM was 1.67%.

With `COc1ccc2[nH]c3c(c2c1)CC[C@@H]1C[C@H](O)CC[C@]31C` [Compound 10f], the inhibition at 10 µM turned out to be 13%.

On to `CC12CCC(O)CC1CCc1c2[nH]c2ccc(C(F)(F)F)cc12` (stereo not shown) [Compound 10g], for which the inhibition at 10 µM is -2.5%.

For `C[C@]12CC[C@@H](O)C[C@H]1CCc1c2[nH]c2ccc(I)cc12` [Compound 10h], the “Aster-B (FP) inhibition” value is 32%.

Regarding `C[C@]12CC[C@@H](O)C[C@H]1CCc1c2[nH]c2c(F)cc(Cl)cc12` [Compound 10i], the inhibition at 10 µM was -4%.

With `Cc1cc(C)c2c3c([nH]c2c1)[C@@]1(C)CC[C@@H](O)C[C@H]1CC3` [Compound 10j], the inhibition at 10 µM is 16%.

As for `CCOC(=O)c1ccc2[nH]c3c(c2c1)CC[C@@H]1C[C@H](O)CC[C@]31C` [Compound 10k], the “Aster-B (FP) inhibition” value is -4%.

On to `C[C@]12CC[C@@H](O)C[C@H]1CCC(=O)c1ccccc1NC2=O` [Compound 11a], for which the “Aster-B (FP) inhibition” value was found to be 10%.

Regarding `C[C@]12CC[C@@H](O)C[C@H]1CCC(=O)c1cc(Br)ccc1NC2=O` [Compound 11b], the inhibition at 10 µM is 7.5%.
